Experiments:
canine leukocytes = test system: canine leukocytes
Description: (§1) All cats and dogs were housed at the Waltham Centre for Pet Nutrition, in conditions resembling those of pet cats and dogs, and were fed commercially available, complete diets throughout the study period. Fasted blood samples (5 ml) were drawn from the jugular vein of 12 healthy adult cats (7.2±4.8 years) and 12 healthy adult dogs (4.5±2.3 years) into lithium herparin vials and diluted 1:1 in PBS. Leukocytes were isolated over Histopaque 1083 gradients (Sigma, UK) by centrifugation at 1000 g for 40 minutes. Leukocytes were washed twice in 10 mls PBS and centrifuged at 700 g for 10 minutes before counting and storing at 1×10^6 cells/ml in 90% fetal calf serum (Sigma) and 10% dimethyl sulphoxide (Sigma) at −80° C. until required.
(§2) DNA damage was induced in vitro by exposing the leukocytes to a range of H2O2 concentrations (0-250 μM diluted in PBSa) to determine the optimal level of H2O2 required to induce a significant increase in DNA damage above background endogenous DNA damage levels. Leukocytes were thawed rapidly in a 37° C. water bath, washed twice in PBSa, centrifuged at 700 g for 15 minutes and resuspended in PBSa at […]. Cells were re-suspended in 0 μM, 10 μM, 50 μM, 100 μM and 250 μM H2O2 in PBSa and incubated on ice for 5 minutes. Treated leukocytes were centrifuged at 700 g for 15 minutes at 4° C. ready for slide preparation.
(§3) Two layers of agarose were prepared. For the first layer, 85 μl 1% (w/v) high-melting point (HMP) agarose (Sigma) prepared at 95° C. in PBSa was pipetted onto fully frosted microscope slides, covered with an 18×18 mm coverslip and allowed to set at 4° C. for 10 minutes. Untreated and hydrogen peroxide-treated leukocytes were washed twice in PBS, centrifuged at 700 g for 15 minutes and resuspended at 2×10^5 in 85 μl 1% (w/v) low melting point (LMP) agarose (Sigma). The cell suspension was then pipetted over the set HMP agarose layer, covered with an 18×18 mm coverslip and allowed to set at 4° C. for 10 minutes. After the coverslips were removed, the slides were immersed in freshly prepared cold lysis solution.

feline leukocytes = test system: feline leukocytes
Description: as §1, §2, §3

[1] = 10-250 μM H2O2, 5 minutes, p<0.001

OO [H2O2, hydrogen peroxide]
DNA damage in relation to all other concentrations of H2O2 (canine leukocytes; 250 μM H2O2, FIG. 2): significant increases in DNA damage | DNA damage (visual comet score) versus untreated samples (canine leukocytes; [1]): Statistically significant increases in DNA damage | DNA damage in relation to all other concentrations of H2O2 (feline leukocytes; 250 μM H2O2, FIG. 1): significant increases in DNA damage | DNA damage (visual comet score) versus untreated samples (feline leukocytes; [1]): Statistically significant increases in DNA damage
